Assay results from US20230080054A1 (ILDONG PHARMACEUTICAL CO., LTD., priority 2021, published 2023).

Biological target: T1, human ANO6 (Homo sapiens, UniProt Q4KMQ2)
T1 construct: expressed in transfected cells
T1 sequence (Q4KMQ2 1-931 isoform Q4KMQ2-2): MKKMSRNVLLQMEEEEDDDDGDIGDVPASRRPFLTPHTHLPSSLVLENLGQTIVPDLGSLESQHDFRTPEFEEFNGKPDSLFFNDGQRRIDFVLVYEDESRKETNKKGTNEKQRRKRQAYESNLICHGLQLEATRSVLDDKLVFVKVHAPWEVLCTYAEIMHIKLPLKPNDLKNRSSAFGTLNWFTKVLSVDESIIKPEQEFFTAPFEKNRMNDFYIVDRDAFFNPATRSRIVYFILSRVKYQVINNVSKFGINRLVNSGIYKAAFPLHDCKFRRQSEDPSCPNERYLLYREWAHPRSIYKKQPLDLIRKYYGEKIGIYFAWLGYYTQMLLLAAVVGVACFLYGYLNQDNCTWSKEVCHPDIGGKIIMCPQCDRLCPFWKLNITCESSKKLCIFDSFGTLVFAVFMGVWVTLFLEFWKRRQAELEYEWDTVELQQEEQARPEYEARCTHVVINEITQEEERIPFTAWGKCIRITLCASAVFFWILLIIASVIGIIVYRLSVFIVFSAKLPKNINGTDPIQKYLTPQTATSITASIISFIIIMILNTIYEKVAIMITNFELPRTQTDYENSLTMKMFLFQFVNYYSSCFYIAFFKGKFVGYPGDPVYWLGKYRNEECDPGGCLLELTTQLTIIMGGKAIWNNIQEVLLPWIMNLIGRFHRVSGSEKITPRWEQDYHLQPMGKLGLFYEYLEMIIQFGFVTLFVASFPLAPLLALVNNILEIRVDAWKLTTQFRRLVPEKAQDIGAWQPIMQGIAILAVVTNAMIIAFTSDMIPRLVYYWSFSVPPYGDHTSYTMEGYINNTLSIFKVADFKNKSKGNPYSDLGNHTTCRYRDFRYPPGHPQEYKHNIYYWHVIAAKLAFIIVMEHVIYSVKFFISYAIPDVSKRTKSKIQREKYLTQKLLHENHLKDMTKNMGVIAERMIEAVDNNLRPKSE
Assay: LACT C2 assay (phosphatidylserine scramblase function assay)
Type: cell-based
Settings: FRT cells expressing human ANO6, 10 μM ionomycin; for inhibition at 0.1 µM: test compound 100 nM, read-out: Inhibition Level 100 nM; for inhibition at 1 µM: test compound 1 μM, read-out: Inhibition Level 1 μM
How it was run: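 FRT cells stably expressing human ANO6 were pretreated with compound (1% DMSO) for 10 min, then stimulated with 10 μM ionomycin for 10 min. Surface phosphatidylserine was stained with 500 nM Lact-C2-GFP and quantified by imaging. Inhibition was scaled between unstimulated (100%) and ionomycin-only (0%) controls, averaged over triplicates.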

inhibition at 0.1 µM | inhibition at 1 µM | Structure (SMILES)
< 30% | 30 to 60% | Nc1ccccc1NC(=O)c1cccc(Nc2ccc(-c3cccc(F)c3)cn2)c1 [Compound 143, N-(2-aminophenyl)-3-((5-(3-fluorophenyl)pyridin-2-yl)amino)benzamide]
< 30% | < 30% | O=C(NCCc1ccccc1C(=O)O)c1cccc(Nc2ncc(-c3cccc(F)c3)cn2)c1 [Compound 132, 2-(2-(3-((5-(3-fluorophenyl)pyrimidin-2-yl)amino)benzamido)ethyl)benzoic acid]
< 30% | – | CN(c1cccc(C(=O)N[C@@H]2C[C@H]2c2ccccc2)c1)c1ncc(-c2cccc(F)c2)cn1 [Compound 180, 3-((5-(3-fluorophenyl)pyrimidin-2-yl)(methyl)amino)-N-((1R,2S)-2-phenylcyclopropyl)benzamide]
< 30% | ≥ 60% | O=C(N[C@@H]1C[C@H]1c1ccccc1)c1ccnc(Nc2ccc(-c3ccccc3)cn2)c1 [Compound 149, N-((1R,2S)-2-phenylcyclopropyl)-2-((5-phenylpyridin-2-yl)amino)isonicotinamide]
< 30% | ≥ 60% | O=C(Nc1cccc(F)c1)c1cccc(Nc2ccc(-c3ccncc3)cc2)c1 [Compound 162, N-(3-fluorophenyl)-3-((4-(pyridin-4-yl)phenyl)amino)benzamide]
< 30% | 30 to 60% | O=C(NCc1ccc(Br)cc1)c1cccc(Nc2ncc(-c3cccc(F)c3)cn2)c1 [Compound A100]
< 30% | 30 to 60% | CN1CCN(c2cc(CNC(=O)c3cccc(Nc4ccc(-c5ccccc5)nn4)c3)ccc2F)CC1 [Compound 227, N-(4-fluoro-3-(4-methylpiperazin-1-yl)benzyl)-3-((6-phenylpyridazin-3-yl)amino)benzamide]
< 30% | 30 to 60% | CN1CCN(c2cc(F)ccc2CNC(=O)c2cccc(Nc3ccc(-c4ccccc4)nn3)c2)CC1 [Compound 222, N-(4-fluoro-2-(4-methylpiperazin-1-yl)benzyl)-3-((6-phenylpyridazin-3-yl)amino)benzamide]
< 30% | ≥ 60% | COc1ccc([C@@H]2C[C@H]2NC(=O)c2cccc(Nc3ccc(-c4ccccc4)nn3)c2)cc1 [Compound 236, N-((1R,2S)-2-(4-methoxyphenyl)cyclopropyl)-3-((6-phenylpyridazin-3-yl)amino)benzamide]
< 30% | < 30% | COc1cc(F)ccc1CNC(=O)c1cccc(Nc2ccc(-c3cccc(F)c3)nn2)c1 [Compound 229, N-(4-fluoro-2-methoxybenzyl)-3-((6-(3-fluorophenyl)pyridazin-3-yl)amino)benzamide]
< 30% | 30 to 60% | CN1CCN(Cc2ccc(NC(=O)c3cccc(Nc4ncc(-c5cccc(F)c5)cn4)c3)cc2)CC1 [Compound 135, 3-((5-(3-fluorophenyl)pyrimidin-2-yl)amino)-N-(4-((4-methylpiperazin-1-yl)methyl)phenyl)benzamide]
< 30% | ≥ 60% | N#Cc1cccc(NC(=O)c2cccc(Nc3ncc(-c4cccc(F)c4)cn3)c2)c1 [Compound 136, N-(3-cyanophenyl)-3-((5-(3-fluorophenyl)pyrimidin-2-yl)amino)benzamide]
< 30% | 30 to 60% | O=C(NCc1ccc(F)c(F)c1F)c1cccc(Nc2ncc(-c3cccc(F)c3)cn2)c1 [Compound 217, 3-((5-(3-fluorophenyl)pyrimidin-2-yl)amino)-N-(2,3,4-trifluorobenzyl)benzamide]
< 30% | < 30% | Cc1ccc(CCNC(=O)c2cccc(Nc3ncc(-c4ccccc4)cn3)c2)o1 [Compound 153, N-(2-(5-methylfuran-2-yl)ethyl)-3-((5-phenylpyrimidin-2-yl)amino)benzamide]
30 to 60% | – | CCN1CCN(c2cc(F)ccc2CNC(=O)c2cccc(Nc3ccc(-c4ccccc4)nn3)c2)CC1 [Compound 220, N-(2-(4-ethylpiperazin-1-yl)-4-fluorobenzyl)-3-((6-phenylpyridazin-3-yl)amino)benzamide]
< 30% | < 30% | COC(=O)c1ccccc1CCNC(=O)c1cccc(Nc2ncc(-c3cccc(F)c3)cn2)c1 [Compound 127, methyl 2-(2-(3-((5-(3-fluorophenyl)pyrimidin-2-yl)amino)benzamido)ethyl)benzoate]
< 30% | < 30% | Cc1ccc(CNC(=O)c2cccc(Nc3ncc(-c4cccc(F)c4)cn3)c2)cc1 [Compound A97]
< 30% | ≥ 60% | O=C(Nc1cccc(F)c1)c1cccc(Nc2ncc(-c3cccc(F)c3)cn2)c1 [Compound A91]
< 30% | – | O=C(Nc1cccc(F)c1)C1CCCC(Nc2ccc(-c3ccccc3)nn2)C1 (stereo not shown) [Compound 191, N-(3-fluorophenyl)-3-((6-phenylpyridazin-3-yl)amino)cyclohexane-1-carboxamide]
< 30% | – | O=C(Nc1ccc2c(c1)CCN2)c1cccc(Nc2ncc(-c3cccc(F)c3)cn2)c1 [Compound 181, 3-((5-(3-fluorophenyl)pyrimidin-2-yl)amino)-N-(indolin-5-yl)benzamide]
< 30% | < 30% | O=C(Nc1cccc(F)c1)c1cccc(Nc2nnc(-c3ccccc3)o2)c1 [Compound 158, N-(3-fluorophenyl)-3-((5-phenyl-1,3,4-oxadiazol-2-yl)amino)benzamide]
< 30% | 30 to 60% | N#CC1(NC(=O)c2cccc(Nc3ncc(-c4cccc(F)c4)cn3)c2)CC1 [Compound 218, N-(1-cyanocyclopropyl)-3-((5-(3-fluorophenyl)pyrimidin-2-yl)amino)benzamide]
< 30% | 30 to 60% | COc1cc(F)ccc1CNC(=O)c1cccc(Nc2ccc(-c3ccccc3)nn2)c1 [Compound 214, N-(4-fluoro-2-methoxybenzyl)-3-((6-phenylpyridazin-3-yl)amino)benzamide]
< 30% | < 30% | O=C(NCc1ccccc1F)c1cccc(Nc2ncc(-c3cccc(F)c3)cn2)c1 [Compound 203, N-(2-fluorobenzyl)-3-((5-(3-fluorophenyl)pyrimidin-2-yl)amino)benzamide]
< 30% | < 30% | CCN1CCN(c2cc(CNC(=O)c3cccc(Nc4ccc(-c5ccccc5)nn4)c3)ccc2F)CC1 [Compound 226, N-(3-(4-ethylpiperazin-1-yl)-4-fluorobenzyl)-3-((6-phenylpyridazin-3-yl)amino)benzamide]
< 30% | ≥ 60% | Cc1ccc(NC(=O)c2cccc(Nc3ncc(-c4cccc(F)c4)cn3)c2)cc1C [Compound A92]
< 30% | – | O=C(Nc1cccc(F)c1)c1cccc(NC2CCC(c3ccccc3)CC2)c1 (single isomer, unassigned) [Compound 188, N-(3-fluorophenyl)-3-((4-phenylcyclohexyl)amino)benzamide]
< 30% | – | O=C(N[C@@H]1C[C@H]1c1ccccc1)c1cc(Nc2ncc(-c3ccccc3)cn2)ccn1 [Compound 167, N-((1R,2S)-2-phenylcyclopropyl)-4-((5-phenylpyrimidin-2-yl)amino)picolinamide]
< 30% | 30 to 60% | N#CC1(NC(=O)c2cccc(Nc3ccc(-c4ccccc4)nn3)c2)CC1 [Compound 225, N-(1-cyanocyclopropyl)-3-((6-phenylpyridazin-3-yl)amino)benzamide]
